This note sets out measurements from US12065468B2, “Heme-binding small peptide” (priority 2021, dated 2024).

“Also recorded” adds a separate entry of the source.

One data set relates to HEK-293. Nature of the data set: Cytotoxic activity assay (MTT). Particulars: 100 μM, 24 h, listed as L-NCR247. Type of data set: cell-based, Human. The method, then:
Cytotoxic activity assay: Human embryonic kidney (HEK-293-ATCC-CRL-1573) cell lines were cultured in Dulbecco's Modified Eagle Medium (DMEM) supplemented with 10% Fetal Bovine Serum (FBS). When cells reached 10^4-10^5 cells per well, cells were supplemented with fresh DMEM without FBS, and then treated with 100 μM of NCR247 (L and D). After treatment for 24 h, MTT (Abeam, United Kingdom) stock solution was added to each well at a final concentration of 500 μg/mL and incubated in the dark for 4 h at 37° C. The absorbance at 570 nm was measured in the Tecan plate reader.

Data set [1] can be described thus: Peroxidase assay of heme on TMB. Type of data set: biochemical. Particulars: 5 μM NCR247 + 5 μM heme. Here is the method: Peroxidase assay: Pierce TMB Substrate Kit was used to measure the peroxidase activity of the heme and equimolar NCR247 was added to heme according to the manufacturer's instructions. In short, 100 μL of TMB substrate solution (1:1 of TMB substrate and Peroxide solution) was added to 96 well black, polystyrene flat bottomed, non-treated, sterile plates. 5 μM heme or 5 μM NCR247+5 μM heme was added to the wells and the progression of the reaction was measured in a Tecan Spark™ plate reader. UV-Vis absorption values at 370 nm and 652 nm are noted every minute over a time period of 16 mins.

Data set [2] has as its system S. meliloti. Briefly: ICP-MS iron content of cells. The class given is cell-based, Sinorhizobium meliloti. Particulars: 2 μM. Here is the method:
ICP-MS: 200 μL of protein sample was mixed with 2 ml of 2% HNO3 and ICP-MS was performed as described previously^84. For bacterial samples, 1 ml of sample was spun down and the pellet was resuspended in 40 μL of 100% HNO3 and heated at 98° C. for 1 hour. The supernatant of the solution was mixed with metal free water to make up to 2 mL and ICP-MS analysis was performed as described previously^84. Same number of cells were spun down for protein analysis through […] and data were normalized to the amount of protein in each sample. For ICP-MS analysis of nodules same procedure was followed, except nodules were first crushed in PBS, portion of sample kept aside for protein quantification and then remaining was treated with HNO3. Agilent ICP-MS instrumentation with MassHunter 4.4 was used to collect data.

A further data set has as its system Candida albicans. Nature of the data set: C. albicans biofilm formation. The class given is cell-based.
Data set [3] deals with S. meliloti. Nature of the data set: Cell cycle progression by flow cytometry on synchronized cultures. Type of data set: cell-based, Sinorhizobium meliloti. Particulars: synchronized culture, 4 uM; listed as L-NCR247. An excerpt: FIG. 14. […] Cell cycle progression analysis using flow cytometry on synchronized cultures of Wild type S. meliloti and bacA mutant of S. meliloti treated with L or D-NCR247 when compared to untreated cells. Dark grey represents percentage of cells with 1 copy of genome and light grey represents percentage of cells with 2 copies of genomes. […] Data are presented as average of three biological replicates.
Since NCR247 treatment leads to gene expression change in several genes of the CtrA regulon, we investigated the CtrA regulon and the cell division inhibition role of NCR247. […] In addition, this phenotype is retained in a peptide transporter bacA mutant indicating cell division inhibition happens due to protein-peptide interaction outside the cytoplasm.

Data set [4] concerns ndvA (FeuP regulated), SMc 01581 (ExoS regulated). Briefly: qRT-PCR of FeuP and ExoS regulated genes. Particulars: 2 μM, 30 mins; listed as L-NCR247. Type of data set: cell-based, Sinorhizobium meliloti. An excerpt:
FIG. 17. […] The data are expressed as starting quantities (SQ) of respective mRNAs normalized to the control gene SMc00128 and are presented as average of three technical replicates FIG. 18. NCR247 binds heme and this heme sequestration leads to an iron starvation response in S. meliloti and this happens in the cytoplasm since a bacA mutant is defective in inducing iron import genes. […] The data are expressed as starting quantities (SQ) of respective mRNAs normalized to the control gene SMc00128 and are presented as average of three technical replicates. […] Data are presented as average of three technical replicates
RNA isolation and qRT-PCR analysis: Cells were grown in LB until they reached an O.D.600 nm of 0.2. Then cells were spun down and suspended in minimal media with or without appropriate FeSO4 concentrations for 1 hour. NCR247 was then added and 5 ml of appropriate cultures were spun down at given time intervals. Total RNA was extracted using Trizol™ (Thermo Fisher Scientific) method. Qiagen RNeasy™ kit was used to purify the RNA. […] The standard curve method was used for relative quantification. […] This curve was then used for extrapolating relative expression level of each gene of interest in a particular sample to obtain the starting quantities (SQ). […] These normalized values are then expressed as an average of triplicates, with standard deviation (s.d.) represented by the error bars. […]
In general terms: Real-time PCR tracks product formation cycle by cycle.

The test system of a further data set is ribosomal machinery. Briefly: In-vitro translation assay, GFP production. Type of data set: biochemical. Particulars: increasing concentrations; fluorescence and western blot; listed as L-NCR247. An excerpt:
FIG. 19. Interaction of NCR247 with ribosomal machinery leads to modification in translational capability. (A) In-vitro translation assay to measure GFP production with increasing concentrations of L or D-NCR247. […] (B) Western blot to measure the amount of GFP produced using Anti-GFP antibody.
Interaction of NCR247 with ribosomal machinery leads to modification in translational capability. To see if this is due to chiral interaction, we performed in-vitro translation assay and used GFP production and measured fluorescence as a read out. We also performed a western blot to measure the amount of GFP produced using Anti-GFP antibody.
Background: In western blotting, separated proteins are transferred to a membrane and probed.

For the sequence RNGCIVDPRCPYQQCRRPLYCRRR [NCR247], the cytotoxicity entry in the data set on HEK-293 is “negligible cytotoxicity; also recorded: negligible hemolysis”. Moreover, the “peroxidase activity of heme” value in data set [1] is recorded as “intrinsic peroxidase activity of heme is quenched”. The “total iron content of cells” value was “elevated total iron content of the cells” in the data set with S. meliloti [2] and “Increase in Fe content” with S. meliloti [2] (listed as L-NCR247). Moreover, the “C. albicans biofilm formation” value in the data set on Candida albicans is “interferes with the ability of the opportunistic fungal pathogen Candida albicans to form biofilms; also recorded: can inhibit Candida albicans biofilms”. Further, in the data set on S. meliloti [3], the cell division inhibition entry is reported as “leads to cell division inhibition; also recorded: more percentage of cells having 2 copies of genome”. For the same sequence, in data set [4], the “expression of FeuP and ExoS regulated genes” value was “increased in expression; also recorded: increase in expression of ndvA”. Further, the “production of GFP” value in the data set on ribosomal machinery is listed as “inhibition of production of GFP; also recorded: Fluorescence units decreased”.
